Experimental data taken from patent US12358948B2, “Neurotensinergic agonists and methods of using same preventing or treating pain” (priority 2019, dated 2025).
*1 amine or outer side, *2 acyl side, *3 side chain or, on linkers, in order; H or OH if unused. Where a SMILES comes first, the peptide text is derived from it. Bridges are numbered along the chain shown (N, C = ends). [ ]: non-standard residue; d: D form. X2 = O=C([C@H](Cc1cc(F)c(F)cc1F)N[*:1])[*:2]; Ala(cPr) = N[C@@H](CC1CC1)C(=O)O; dAllylGly = C=CC[C@@H](N)C(=O)O; Cit = NC(=O)NCCC[C@H](N)C(=O)O; AllylGly = C=CC[C@H](N)C(=O)O; Nle = CCCC[C@H](N)C(=O)O; Orn = NCCC[C@H](N)C(=O)O; Nva = CCC[C@H](N)C(=O)O

Assays:
hNTS1 receptor = molecular target: T1, hNTS1 receptor (Homo sapiens, UniProt P30989); experiment: Competitive radioligand binding assay on the hNTS1 receptor; conditions: displacement of 125I-[Tyr3]-NT, membranes of CHO-K1 cells expressing hNTS1; read-out: IC50 NTS1
T1 construct: membranes prepared from them
Method: (§1) CHO-K1 (Chinese Hamster Ovary) cells stably expressing hNTS1 and 1321N1 cells stably expressing hNTS2 (ES-690-C and ES-691-C from PerkinElmer, Montréal, Canada) were cultured respectively in Ham's F12 and in DMEM culture media. Culture media were supplemented with 10% FBS, 100 U/mL penicillin, 100 μg/mL streptomycin, 20 mM HEPES, and 0.4 mg/mL G418 at 37° C. in a humidified chamber at 5% CO2.
(§2) The cells expressing hNTS1 were frozen when they reached 80% confluency. They were scrapped off the dish with 10 mM Tris buffer, 1 mM EDTA, pH 7.5 and centrifuged at 15,000 g for 5 min at 4° C. The pellet was then re-suspended in 1 mL binding buffer. The cells expressing hNTS2 were also frozen when they reached 80% confluency. They were scraped off the dish with PBS, 0.5 mM EDTA, pH 7.5 and sonicated for 5 minutes (pulse 30 s/5 s off, amplitude 40%). They were ultracentrifuged at 100 000 g for 60 minutes at 4° C. The pellet was re-suspended in 1 mL freezing buffer (PBS, glycerol, 0.5 mM EDTA), sonicated for 1 minute (pulse 30 s/5 s off, amplitude 50%) and further diluted in binding buffer. Competitive radioligand binding experiments were performed by incubating 15 μg of cell membranes expressing the hNTS1 receptor with […] of ^125I-[Tyr^3]-NT (2200 Ci/mmol) or 50 μg of cell membranes expressing the hNTS2 receptor with […] of ^125I-[Tyr^3]-NT in binding buffer (50 mM Tris-HCl, pH 7.5, 0.2% BSA) in the presence of increasing concentrations of analogues ranging from 10^−11 to 10^−4 M for 60 min at 25° C. After incubation, the binding reaction mixture was transferred in PEI-coated 96-well filter plates (glass fiber filters GF/B, Millipore, Billerica, MA). Reaction was terminated by filtration, and plates were washed three times with 200 μL ice-cold binding buffer. Glass filters were then counted using a γ-counter (2470 Wizard2, PerkinElmer, Mississauga, Ontario, Canada). Non-specific binding was measured in the presence of 10^−5 M unlabeled NT (8-13) and represented less than 5% of total binding. IC50 values were determined from competition curves as the unlabeled ligand concentration inhibiting 50% of ^125I-[Tyr^3]-NT-specific binding.
(§3) Competitive radioligand binding data were plotted using the nonlinear regression One-site-Fit Log(IC50) and represented the mean±SEM of at least three independent experiments in triplicates.

hNTS2 receptor = molecular target: T2, hNTS2 receptor (Homo sapiens, UniProt O95665); experiment: Competitive radioligand binding assay on the hNTS2 receptor; conditions: for IC50: displacement of 125I-[Tyr3]-NT, membranes of 1321N1 cells expressing hNTS2, read-out: IC50 NTS2 (converted); for Selectivity: ratio IC50 for NTS1 : IC50 for NTS2
T2 construct: membranes prepared from them
Method: as §1, §2, §3

T2 sequence (O95665 whole entry): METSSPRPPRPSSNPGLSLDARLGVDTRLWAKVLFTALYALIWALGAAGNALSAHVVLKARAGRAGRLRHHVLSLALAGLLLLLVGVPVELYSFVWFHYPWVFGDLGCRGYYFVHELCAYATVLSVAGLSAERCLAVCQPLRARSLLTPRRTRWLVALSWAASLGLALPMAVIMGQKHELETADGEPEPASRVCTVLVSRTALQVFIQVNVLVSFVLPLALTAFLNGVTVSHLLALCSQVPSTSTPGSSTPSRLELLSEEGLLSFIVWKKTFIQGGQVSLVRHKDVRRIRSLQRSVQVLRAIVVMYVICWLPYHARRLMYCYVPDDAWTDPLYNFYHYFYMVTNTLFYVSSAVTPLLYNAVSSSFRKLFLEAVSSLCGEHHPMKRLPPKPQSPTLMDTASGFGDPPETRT
T1 sequence (P30989 whole entry): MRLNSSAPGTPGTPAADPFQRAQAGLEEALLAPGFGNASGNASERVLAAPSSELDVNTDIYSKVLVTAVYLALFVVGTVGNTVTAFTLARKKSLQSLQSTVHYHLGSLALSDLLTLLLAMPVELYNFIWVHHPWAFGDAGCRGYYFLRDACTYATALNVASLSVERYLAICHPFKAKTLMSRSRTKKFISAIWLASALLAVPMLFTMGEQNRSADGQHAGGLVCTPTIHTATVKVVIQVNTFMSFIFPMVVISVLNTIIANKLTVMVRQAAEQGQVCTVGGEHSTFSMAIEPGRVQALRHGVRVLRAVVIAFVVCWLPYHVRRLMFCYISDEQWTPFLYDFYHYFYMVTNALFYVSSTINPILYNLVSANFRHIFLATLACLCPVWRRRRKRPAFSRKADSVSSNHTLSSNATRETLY

| Compound | IC50 (hNTS1 receptor) | IC50 (hNTS2 receptor) | Selectivity (hNTS2 receptor) |
| --- | --- | --- | --- |
| NCCCC[C@@H]1NC(=O)[C@H](CCCCN)NC(=O)[C@@H](N)CC=CC[C@@H](C(=O)N[C@@H](Cc2ccc(O)cc2)C(=O)N[C@@H](Cc2cc(F)c(F)cc2F)C(=O)O)NC1=O [compound 63, c[G(All)KKG(All)]YF(2,4,5-trifluoro)] (H-[AllylGly]KK[AllylGly]Y[X2]-OH; staple 1-4) | > 100000 nM | 366 nM | >273 |
| CC(C)C[C@H](NC(=O)[C@H](Cc1ccc(O)cc1)NC(=O)[C@@H]1CC=CC[C@H](N)C(=O)N[C@@H](Cc2c[nH]cn2)C(=O)N[C@@H](CCCCN)C(=O)N1)C(=O)O [compound 83, c[G(All)HKG(All)]YL] (H-[AllylGly]HK[AllylGly]YL-OH; staple 1-4) | > 100000 nM | 1320 nM | >76 |
| CC(C)C[C@H](NC(=O)[C@H](Cc1ccc(O)cc1)NC(=O)[C@@H]1CC=CC[C@H](N)C(=O)N[C@@H](CCCNC(N)=O)C(=O)N[C@@H](CCCCN)C(=O)N1)C(=O)O [compound 147, c[G(All)citrullineKG(All)]YL] (H-[AllylGly][Cit]K[AllylGly]YL-OH; staple 1-4) | > 100000 nM | 600 nM | 167 |
| COc1ccc(C[C@H](NC(=O)[C@H](Cc2ccc(O)cc2)NC(=O)[C@@H]2CC=CC[C@H](N)C(=O)N[C@@H](CCCCN)C(=O)N[C@@H](CCCCN)C(=O)N2)C(=O)O)cc1 [compound 62, c[G(All)KKG(All)]YY(OMe)] (H-[AllylGly]KK[AllylGly]YY(Me)-OH; staple 1-4) | > 100000 nM | 166 nM | >602 |
| CCCC[C@@H]1NC(=O)[C@H](CCCCN)NC(=O)[C@@H](N)CC=CC[C@@H](C(=O)N[C@@H](Cc2ccc(O)cc2)C(=O)N[C@@H](CC(C)C)C(=O)O)NC1=O [compound 57, c[G(All)KNleG(All)]YL] (H-[AllylGly]K[Nle][AllylGly]YL-OH; staple 1-4) | > 100000 nM | 716 nM | >140 |

Next, values leading:

| IC50 (hNTS1 receptor) | IC50 (hNTS2 receptor) | Selectivity (hNTS2 receptor) | Compound |
| --- | --- | --- | --- |
| > 100000 nM | 743 nM | >135 | CCC[C@@H]1NC(=O)[C@@H](N)CC=CC[C@@H](C(=O)N[C@@H](Cc2ccc(O)cc2)C(=O)N[C@@H](CC(C)C)C(=O)O)NC(=O)[C@H](CCCCN)NC1=O [compound 86, c[G(All)NvaKG(All)]YL] (H-[AllylGly][Nva]K[AllylGly]YL-OH; staple 1-4) |
| > 100000 nM | 312 nM | >321 | NCCCC[C@@H]1NC(=O)[C@H](CCCCN)NC(=O)[C@@H](N)CC=CC[C@@H](C(=O)N[C@@H](Cc2ccc(O)cc2)C(=O)N[C@@H](CC2CC2)C(=O)O)NC1=O [compound 65, c[G(All)KKG(All)]YA(cyclopropyl)] (H-[AllylGly]KK[AllylGly]Y[Ala(cPr)]-OH; staple 1-4) |
| > 100000 nM | 698 nM | 143 | CC(C)C[C@H](NC(=O)[C@H](Cc1ccc(O)cc1)NC(=O)[C@@H]1CC=CC[C@H](N)C(=O)N[C@@H](CCCCN)C(=O)N[C@@H](CCCNC(N)=O)C(=O)N1)C(=O)O [compound 146, c[G(All)KcitrullineG(All)]YL] (H-[AllylGly]K[Cit][AllylGly]YL-OH; staple 1-4) |
| > 100000 nM | 113 nM | >889 | CC(C)C[C@H](NC(=O)[C@H](Cc1ccc(O)cc1)NC(=O)[C@@H]1CC=CC[C@@H](N)C(=O)N[C@@H](CCCCN)C(=O)N[C@@H](CCCCN)C(=O)N1)C(=O)O [compound 41, c[G*(All)KKG(All)]YL] (H-[dAllylGly]KK[AllylGly]YL-OH; staple 1-4) |
| > 100000 nM | 4500 nM | >22 | CC(C)C[C@H](NC(=O)[C@H](Cc1ccc(O)cc1)NC(=O)[C@@H]1CCC(=O)NCCC[C@H](N)C(=O)N[C@@H](CCCCN)C(=O)N[C@@H](CCCCN)C(=O)N1)C(=O)O [compound 100, c[OrnKKE]YL] (H-[Orn]KKEYL-OH; lactam 1-4) |
